{
  "source": "patent US20230167064A1",
  "about": "“TREATMENTS OF INFLAMMATORY BOWEL DISEASE” (Aqilion AB, priority 2020, published 2023)",
  "key": {"[1]": {"tested_on": "Crohn's Disease", "conditions": "reported in D'Haens et al. 2015 and WO 2011/014255; cited from earlier work"}, "[2]": {"tested_on": "DSS model of Ulcerative Colitis using C57Bl/6 mice", "assay": "DSS model of Ulcerative Colitis in mice", "assay_type": "in vivo", "conditions": "1 mg/kg daily oral, vs vehicle (and anti-TNFα antibody); for colitis clinical score: suspension in CMC-Na 2%, Day 9; for colon length: Day 10, experiment termination", "procedure": "Ulcerative Colitis was modelled in C57Bl/6 mice by administering Dextran Sulphate Sodium (DSS) in drinking water (1.5% w/v) for 5 days. Mice were monitored daily for weight loss and clinical symptoms of disease for 10 days starting at the beginning of DSS administration.\nThe length and weight of the colon were also assessed.\nCompared to naïve animals, animals given DSS water developed clinical signs of disease including weight loss and diarrhoea as well as gross pathological signs of disease on experiment termination. […] Shortened length and increased weight:length ratio indicates edema associated with ulcerative colitis."}, "[3]": {"tested_on": "CD4+ adoptive transfer induced inflammatory bowel disease in mice", "assay": "CD4+ adoptive transfer induced inflammatory bowel disease in mice", "assay_type": "in vivo, Fox Chase C.B-17 SCID mice", "conditions": "1 mg/kg daily, day 21 to 49; for inhibition of inflammation/edema associated with inflammatory bowel disease (anti-inflammatory effect in colon): Potassium Salt", "procedure": "The efficacy of Example compound 2 in inhibiting inflammation/edema associated with inflammatory bowel disease was evaluated in a CD4+ adoptive transfer induced inflammatory bowel disease in mice.\nSpecies/Strain or Breed: Fox Chase C.B-17 SCID & Balb/C\nOn study day −1, SCID mice were weighed and evenly distributed into treatment groups based on body weight.\nOn study day 0, Balb/C mice were terminated, and spleens obtained for CD4^+CD45RB^high cell isolation (Using SCID IBD Cell Separation Protocol). After cells were sorted and obtained, each animal in the treatment groups received an IP injection of CD4^+CD45RB^high cells at a minimum 4×10^5 cells (200 μl/mouse injections). A naïve group of mice was followed through the experiment without receiving the injection of cells. The naïve group comprised 5 animals.\nOn study day 21, treatment with Example compound 2 (1 mg/kg, daily day 21 to 49) was initiated. The compound was formulated as a 0.1 mg/mL suspension with sodium carboxymethyl cellulose (1%, w/v). Mice received either Example compound 2 or vehicle. Each of those groups comprised 10 animals.\nOn study day 49, animals were anesthetized with Isoflurane and bled to exsanguination followed by cervical dislocation. The entire colon was removed, measured, and weighed. The colon was analysed for its level of interferon-γ and IL-22. The inflammation in the colons was also scored by visual and histopathological assessments."}, "[4]": {"tested_on": "aryl hydrocarbon receptor (AhR)", "assay": "Activation of AhR in colon of mice after oral dosing (qPCR of CYP1A1)", "assay_type": "in vivo, C57Bl/6 mice", "conditions": "for Colon CYP1A1 (fold change over untreated) Mean / Liver CYP1A1 (fold change over untreated) Mean: day 14; for Colon CYP1A1 (fold change over untreated) Mean: qPCR normalized to GAPDH & ACTB", "procedure": "The potential of Example compound 2 to activate the aryl hydrocarbon receptor (AhR) in the colon following oral administration was evaluated in a wild-type (WT) mice.\nSpecies/Strain or Breed: C57Bl/6\nOn study day 0, animals were weighed and evenly distributed into treatment groups based on body weight. On study day 14, animals were asphyxiated via CO2 inhalation followed by cervical dislocation. The entire colon was removed, collected and prepared for qPCR analysis of CYP1A1 (Normalized to GAPDH & ACTB).\nThe Example compound 2 was formulated as a 0.1 mg/ml, 0.01 mg/ml or 0.001 mg/ml suspension with sodium carboxymethyl cellulose (1%, w/v)."}, "[5]": {"assay": "In vivo pharmacokinetic study in rats", "set-up": "species or system Sprague Dawley rats", "conditions": "1 mg/kg oral, rat plasma", "procedure": "An in vivo pharmacokinetic study in rats was performed to determine if Example compound 2 can be absorbed and detected systemically after oral dosing. 4 male Sprague Dawley rats, approximately 225 g-250 g at dosing were dosed with 1 mg/kg of Example compound 2 formulated as a 0.1 mg/mL suspension with sodium carboxymethyl cellulose (1%, w/v). Blood samples were taken at 15 min, 30 min, 1 h, 2 h, 4 h, 6 h, 8 h and 24 h post dose At each blood sampling approximately 250 μL blood was sampled in K3EDTA vials and approximately 100 μL plasma was also prepared. The plasma samples were prepared by mixing 50 μL plasma with 250 μL of internal standard solution (20 ng/mL of phenacetin in ACN with 1% formic acid), mixed and centrifuged (20 min, 4000 rpm). Plasma samples were transferred to Waters Ostro 96-well plate and drawn through the plate by applying 6-8 psi positive pressure for 10 min. 100 μL of supernatant was further diluted with 50 μL UP water and sample was submitted to analysis. The standard and QC samples were prepared into blank rat colon homogenate and blank rat plasma. Standards were spiked into concentrations 0.1-10000 ng/mL of the analytes, QC samples into 3, 30, 300 and 3000 ng/mL, and were otherwise treated as samples."}},
  "note": "Entries after “also recorded” stand apart in the source; their conditions may differ.",
  "data": [
    {"smiles": "CCN(C(=O)c1c(O)c2c(Cl)cccc2n(C)c1=O)c1ccccc1", "note": "[laquinimod]", "values": [
      {"measurement": "benefit in treatment of Crohn's Disease", "setting": "[1]", "value": "beneficial for the treatment of Crohn's Disease"}
    ]},
    {"smiles": "Cn1c(=O)c(C(=O)Nc2ccccc2)c(O)c2c(Cl)cccc21", "note": "[Example compound 1, 5-chloro-4-hydroxy-1-methyl-2-oxo-N-phenyl-quinoline-3-carboxamide]", "values": [
      {"measurement": "colitis clinical score", "setting": "[2]", "value": "significant reduction in colitis clinical score; also recorded: lower colitis score"},
      {"measurement": "colitis clinical score", "setting": "[2]; listed as DELAQ", "value": "protective effect against the development of the clinical symptoms of Ulcerative Colitis"},
      {"measurement": "colon length", "setting": "[2]", "value": "significant increase in colon length; also recorded: greater colon length"},
      {"measurement": "colon length", "setting": "[2]; listed as DELAQ", "value": "effective at reducing colon shortening"},
      {"measurement": "body weight change (% change from day 1 of experiment), weight loss", "setting": "[2]", "value": "reduced weight loss"}
    ]},
    {"smiles": "Cn1c(=O)c(C(=O)Nc2ccccc2)c(O)c2c(Cl)cccc21.[K]", "note": "[Example compound 2, 5-chloro-4-hydroxy-1-methyl-2-oxo-N-phenyl-quinoline-3-carboxamide Potassium Salt]", "values": [
      {"measurement": "inhibition of inflammation/edema associated with inflammatory bowel disease (anti-inflammatory effect in colon)", "setting": "[3]", "value": "local anti-inflammatory effect in the colon"},
      {"measurement": "colon level of inflammatory markers (interferon-γ and IL-22)", "setting": "[3]; colon at day 49, vs vehicle", "value": "lower levels of inflammatory markers"},
      {"measurement": "inflammation in the colons scored by visual and histopathological assessments", "setting": "[3]; day 49, vs vehicle", "value": "fewer signs of inflammation"},
      {"measurement": "inhibition of inflammation/edema associated with inflammatory bowel disease (anti-inflammatory effect in colon)", "setting": "[3]; listed as potassium salt of DELAQ", "value": "effective in inhibiting inflammation/edema"},
      {"measurement": "body weight (weight loss)", "setting": "[3]; vs vehicle", "value": "less weight loss"},
      {"measurement": "Colon CYP1A1 (fold change over untreated) Mean", "setting": "[4]; 0.01 mg/kg PO QD D0-13", "value": "1.03 fold change over untreated"},
      {"measurement": "Liver CYP1A1 (fold change over untreated) Mean", "setting": "[4]; 0.01 mg/kg PO QD D0-13", "value": "1.08 fold change over untreated"},
      {"measurement": "Colon CYP1A1 (fold change over untreated) Mean", "setting": "[4]; 0.1 mg/kg PO QD D0-13", "value": "7.42 fold change over untreated"},
      {"measurement": "Liver CYP1A1 (fold change over untreated) Mean", "setting": "[4]; 0.1 mg/kg PO QD D0-13", "value": "2.81 fold change over untreated"},
      {"measurement": "Colon CYP1A1 (fold change over untreated) Mean", "setting": "[4]; 1.0 mg/kg PO QD D0-13", "value": "8.34 fold change over untreated"},
      {"measurement": "Liver CYP1A1 (fold change over untreated) Mean", "setting": "[4]; 1.0 mg/kg PO QD D0-13", "value": "3.44 fold change over untreated"},
      {"measurement": "CYP1A1 mRNA expression compared to untreated animals (AhR activation)", "setting": "[4]; 1.0 and 0.1 mg/kg oral, WT mice", "value": "significant increase in CYP1A1 mRNA expression"},
      {"measurement": "AhR activating effect, colon versus liver CYP1A1 increase", "setting": "[4]; oral, increase in liver CYP1A1 lower than in colon", "value": "local AhR activating effect"},
      {"measurement": "clearance from plasma", "setting": "[5]", "value": "rapidly cleared"},
      {"measurement": "level in the plasma after oral dosing", "setting": "[5]; 15 min to 24 h post dose", "value": "detected in the plasma"}
    ]}
  ]
}
